Test results from patent publication US20130309380A1, “METHODS FOR PRESERVING FRESH PRODUCE” (NatureSeal, Inc., priority 2003, published 2013).

Assays:
[1] = system: Bramley apples; experiment: Water released by sliced Bramley apples
Description: (§1) The firmness of the produce in Example 11a were evaluated by bending produce samples. Appearance was evaluated by visual inspection. The moisture was evaluated by measuring the amount of water the produce released.
(§2) Whole Bramley apples free from blemishes or bruises, were rinsed with water, sanitized with a sodium hypochlorite solution having 100 parts per million available chlorine, for two minutes, then peeled, cored, and sliced. The sliced apples were dipped into a fresh produce preservative solution that contained 5.12% strontium ascorbate; the fresh produce preservative solution contained 4.12% ascorbic acid and 1.79% […], for about 30 to 60 seconds. The apples were then drained in a colander for one minute. The apple slices and the colander were placed in 500 micron plastic bags from SunSet Packaging, stored at 4° C. and evaluated several times over a 15 day period. Water which collected in the plastic bag was removed and weighed.
For comparison, similarly prepared apple slices were placed in one of several solutions that contained either: 4.3% ascorbic acid and 1.13% hydrated MgCO3, specifically 4MgCO3.Mg(OH)25H2O or a 5.0% w/w aqueous solution of calcium ascorbate dihydrate, having a pH of 7.2; or a 5.3% w/w solution, of 4.12% ascorbic acid and 1.17% calcium carbonate,; or 6% ascorbic acid having a pH of 2.3; or 48 g ascorbic acid, 48 g citric acid, 16 g CaCl2 and 48 g NaCl in 800 g water, with a pH of 1.2; or 6% w/w citric acid and 6% w/w ascorbic acid; or 4.64% sodium ascorbate having 4.13% ascorbic acid and 1.18% NaCo3. […]

[2] = system: Bramley apples; experiment: Evaluation of sliced Bramley apples: appearance by visual inspection, firmness by bending
Description: as §1, §2
For comparison, similarly prepared apple slices were placed in one of several solutions that contained either: 4.3% ascorbic acid and 1.13% hydrated MgCO3, specifically 4MgCO3.Mg(OH)25H2O or a 5.0% w/w aqueous solution of calcium ascorbate dihydrate, having a pH of 7.2; or a 5.3% w/w solution, of 4.12% ascorbic acid and 1.17% calcium carbonate,; or 6% ascorbic acid having a pH of 2.3; or 48 g ascorbic acid, 48 g citric acid, 16 g CaCl2 and 48 g NaCl in 800 g water, with a pH of 1.2; or 6% w/w citric acid and 6% w/w ascorbic acid; or 4.64% sodium ascorbate having 4.13% ascorbic acid and 1.18% NaCo3.
Bramley apples were preserved with the fresh produce preservative as in Example 11a except that the preservative solution contained lithium ascorbate. The lithium ascorbate solution was prepared by adding 7.35 grams of lithium carbonate and 35 grams ascorbic acid to 800 grams water.
For comparison, apple slices were placed in one of several comparative solutions: a 5.0% w/w aqueous solution of calcium ascorbate dihydrate containing 42.5 grams of calcium ascorbate dihydrate and 800 grams water with a pH of 7; a 5.3% w/w solution of calcium ascorbate containing 44.94 grams of mixture of 9.95 grams calcium carbonate and 35 grams ascorbic acid in 800 grams water with a pH of 5.5; a comparative solution, containing 48 g ascorbic acid, 48 g citric acid, 16 g CaCl2, 48 g NaCl and 800 g water with a pH of 1.2; a comparative solution of sodium ascorbate containing 28.45 grams of sodium carbonate 35 grams ascorbic acid, 800 grams water having a pH of 6.8; a comparative solution of calcium ascorbate containing 8.75 grams of calcium carbonate, 35 grams ascorbic acid, and to 800 grams water; a comparative solution of calcium ascorbate containing 9.95 grams of calcium carbonate, 35 grams ascorbic acid, and 765 grams water; a comparative solution of magnesium ascorbate containing 9.66 grams of hydrated magnesium carbonate 4MgCO3.Mg(OH)25H2O, 35 grams ascorbic acid, 765 grams water, having a pH of 6.4; and a comparative solution of zinc ascorbate containing 35 grams ascorbic acid, 12.74 grams zinc carbonate and 765 grams water, with a pH of 5.5. The apple slices were evaluated on day five.

| Compound | Water Released ([1]; 4 hr at 4° C.) [g] | Water Released ([1]; 28 hr at 4° C.) [g] | Water Released ([1]; 52 hr at 4° C.) [g] | Water Released ([1]; 94 hr at 4° C.) [g] | Water Released ([1]; 191 hr at 4° C.) [g] | Water Released ([1]; 335 hr at 4° C.) [g] | Texture ([2]; 4 hr at 4° C.) | Texture ([2]; 28 hr at 4° C.) | Texture ([2]; 52 hr at 4° C.) | Texture ([2]; 94 hr at 4° C.) | Texture ([2]; 191 hr at 4° C.) | Appearance (visual inspection) ([2]; 335 hr at 4° C.) | Color ([2]; Day 5) | Texture ([2]; Day 5) | Texture ([2]; 335 hr at 4° C.) |
| --- | --- | --- | --- | --- | --- | --- | --- | --- | --- | --- | --- | --- | --- | --- | --- |
| O=C1O[C@H]([C@@H](O)CO)C([O-])=C1O.[Na+] [Sodium Ascorbate, sodium ascorbate] | 6.58 | 6.74 | 6.67 | 4.87 | 4.08 | 3.77 | Firm | Firm | Firm | Firm | Firm | Internal browning on some | White | Firm |  |
| calcium ascorbate dihydrate | 6.84 | 5.88 | 5.56 | 4.00 | 2.67 | 1.33 |  | Firm | Firm | Firm | Firm | Good condition | White | Very Firm | Firm |
| magnesium ascorbate | 6.54 | 7.07 | 6.43 | 4.75 | 3.73 | 2.17 |  | Firm | Firm | Firm | Firm | Good color | White | Very Firm | Firm and crisp |
| zinc ascorbate |  |  |  |  |  |  |  |  |  |  |  |  | Brown | Very Soft |  |
